This assay concerns multi-drug resistant M. tuberculosis (Peru isolate). As to the kind of experiment: microbe, parasite or virus in culture. The conditions noted are these: Mycobacterium tuberculosis, 240 h, read-out: MIC, MDR-TB Peru isolate. The format is cell-based.

Where only a bound is given, the exact number is not on record here.

`NNC(=O)c1ccncc1` [Isoniazid]: the MIC was greater than 4 µg/mL. As for `CO[C@H]1/C=C/O[C@@]2(C)Oc3c(C)c(O)c4c(O)c(c(/C=N/N5CCN(C)CC5)c(O)c4c3C2=O)NC(=O)/C(C)=C\C=C\[C@H](C)[C@H](O)[C@@H](C)[C@@H](O)[C@@H](C)[C@H](OC(C)=O)[C@@H]1C` [Rifampicin], the MIC is greater than 4 µg/mL.

Values taken from patent US12171734B2, “Pathogenic bacteria” (Sporegen Limited, priority 2018, dated 2024).
